The values below come from patent US20140336248A1, “THERAPEUTIC COMPOSITIONS AND RELATED METHODS OF USE” (priority 2011, published 2014).

Data set [1] relates to ICR mice. Kind of data set: Tolerability 0.3, 0.6, 1.0 mg/kg IV in 1% ethanol/4% propylene glycol/5% Solutol HS 15 (Example H). It counts as in vivo, mouse. The following applies: male ICR mice. As for the experimental part: Injectable salinomycin compositions were prepared as follows: A) 0.2 mg/mL composition: 1.01 mg of salinomycin sodium was added to 50 μL ethanol and vortexed for 1 minute to yield a clear solution. 200 μL of propylene glycol was then added and vortexed for 1 minute, yielding a clear solution. To this solution was next added 250 μL Solutol® HS 15, with vortexing for 1 minute and sonicating for 1 minute, to yield a clear solution.
(§1) Eight male ICR mice (Sino-British SIPPR/BK Lab Animal Ltd, Shanghai, China) were assigned to control and treatment groups. […] The individual animal number marked on the tail, and study number comprised a unique identification for each animal. Animal identification was verified during the course of the study. The animals were housed two per cage in stainless steel suspended cage in an environmentally controlled room. SLACOM (Rodent Diet #20110615029, Shanghai SLAC Laboratory Animal Co. Ltd.) was available ad libitum. Temperature and humidity were monitored and recorded twice daily.
(§2) Each composition and the vehicle (control) were administered once daily to each of two mice via intravenous bolus injection for 5 consecutive days. The dose levels for the treated groups and the control group are in the below table. Individual doses were based on the most recent body weight.
(§3) Body weights for all animals were measured and recorded at receipt, prior to randomization, and once daily during the study. Body weight change was calculated for mean value of animals relative to Day 1 mean body weight value.

The subject of data set [2] is ICR mice. Kind of data set: Tolerability 5.0, 10.0 mg/kg orally in 1% ethanol/4% propylene glycol/5% Solutol HS 15 (Example J). It counts as in vivo, mouse. As to the method:
Fompositions for oral administration were prepared as follows: A) 1.0 mg/mL composition: 5.05 mg of salinomycin sodium was added to 50 μL ethanol and vortexed for 1 minute to yield a clear solution. 200 μL of propylene glycol was then added and vortexed for 1 minute, yielding a clear solution. To this solution was next added 250 μL Solutol® HS 15, with vortexing for 1 minute and sonicating for 1 minute, to yield a clear solution.
(§4) Six male ICR mice (Sino-British SIPPR/BK Lab Animal Ltd, Shanghai, China) were assigned to control and treatment groups. […] The individual animal number marked on the tail, and study number comprised a unique identification for each animal. Animal identification was verified during the course of the study. The animals were housed two per cage in stainless steel suspended cage in an environmentally controlled room. SLACOM (Rodent Diet #20110615029, Shanghai SLAC Laboratory Animal Co. Ltd.) was available ad libitum. Temperature and humidity were monitored and recorded twice daily.
Each composition and the vehicle (control) were administered once daily to each of two mice via oral gavage for 5 consecutive days. The dose levels for the treated groups and the control group are in the below table. Individual doses were based on the most recent body weight.
as §3

In data set [3] the test system is ICR mice. The data set is described as follows: Tolerability IV in 5% ethanol/15% Solutol HS 15, 5 days (Example L). It counts as in vivo, mouse. The settings on record: for Clinical observations: one animal. As to the method:
Injectable salinomycin compositions were prepared as follows: 0.6 mg/mL stock solution: 1.2 mg of salinomycin sodium was added to 100 μL ethanol and vortexed for 2 minutes and sonicated for 2 minutes to yield a clear solution. To this solution was next added 300 μL Solutol® HS 15, with vortexing for 1 minute. Finally, 1.6 mL water was added to produce a clear stock solution of 0.6 mg/mL salinomycin sodium.
as §4, §2, §3

The subject of data set [4] is ICR mice. Kind of data set: Tolerability 0.1, 0.3, 1.0 mg/kg IV in 1% ethanol/4% propylene glycol/5% Solutol HS 15, 4 days (Example P). It counts as in vivo, mouse. As to the method: as §1, with “Using the techniques described above in Example A, an aqueous vehicle comprising 1% ethanol (v/v), 4% propylene glycol (v/v) and 5% Solutol® HS 15 (v/v) was prepared. An appropriate amount of salinomycin sodium was dissolved into the vehicle to make solutions having concentrations of 0.02, 0.06, and 0.2 mg/mL. Eight male” for “Eight male”, “animal number was marked on” for “animal number marked on”
(§5) Each composition and the vehicle (control) were administered once daily to each of two mice via intravenous bolus injection for 4 consecutive days. The dose levels for the treated groups and the control group are in the below table. Individual doses were based on the most recent body weight.
as §3

Data set [5] deals with ICR mice. Kind of data set: Tolerability 0.03, 0.1, 0.3, 1.0 mg/kg IV in 5% ethanol/10% propylene glycol/20% Solutol HS 15, 4 days (Example Q). The settings on record: 5% ethanol/10% propylene glycol/20% Solutol HS 15 (heading). It counts as in vivo, mouse. As to the method: as §1, with “Using the techniques described above in Example A, an aqueous vehicle comprising 5% ethanol (v/v), 10% propylene glycol (v/v), and 10% Solutol® HS 15 (v/v) was prepared. An appropriate amount of salinomycin sodium was dissolved into the vehicle to make solutions having concentrations of 0.006, 0.02, 0.06, and 0.2 mg/mL. Ten male ICR” for “Eight male ICR”, “animal number was marked on” for “animal number marked on”
as §5, §3

The format of data set [6] is physicochemical. The source says:
The precipitate observed in Batch A in Example S was isolated and subjected to XRPD analysis. Comparative evaluation was done as shown in FIG. 11 using (1) API used in the formulation (Batch C, manufactured by Neuland Laboratories Ltd., India) and (2) API from a different lot (Batch D).

For the compound `CC[C@@H](C(=O)[C@@H](C)[C@@H](O)[C@H](C)[C@@H]1O[C@@H]([C@@H](CC)C(=O)O)CC[C@@H]1C)[C@H]1O[C@]2(C=C[C@@H](O)[C@]3(CC[C@@](C)([C@H]4CC[C@](O)(CC)[C@H](C)O4)O3)O2)[C@H](C)C[C@@H]1C` [salinomycin sodium], the Abnormalities detected result with ICR mice [1] (0.3, 0.6, 1.0 mg/kg IV bolus once daily 5 days) is “no abnormalities”; in the data set on ICR mice [2] (5, 10 mg/kg oral gavage once daily 5 days, 1% ethanol/4% propylene glycol/5% Solutol HS 15), “no abnormalities”. The “Body weight change relative to Day 1” value in the data set on ICR mice [1] (0.3, 0.6, 1.0 mg/kg IV bolus once daily 5 days, FIG. 1) is “all groups added weight”; with ICR mice [2] (5, 10 mg/kg oral gavage once daily 5 days, 1% ethanol/4% propylene glycol/5% Solutol HS 15, FIG. 3) it was “all groups added weight”; with ICR mice [3] (0.1, 0.3 mg/kg IV once daily 5 days, FIG. 5), “all groups added weight”. Also, the “Dose that can be safely dosed” value with ICR mice [1] (IV once daily 5 days) came out at 1 mg/kg. Further, in the data set on ICR mice [2] (oral gavage once daily 5 days, male ICR mice), the “Maximum oral tolerated dosage” value is “at least 10 mg/kg”. In addition, the Clinical observations entry with ICR mice [3] (0.1 mg/kg IV once daily 5 days) is given as “decreased activity immediately after dosing on day 1”; with ICR mice [3] (0.3 mg/kg IV once daily 5 days), “hypersensitivity to touch after dosing on day 1”; with ICR mice [4] (0.1 mg/kg IV once daily 4 days) it was “no abnormalities”; in the data set on ICR mice [4] (0.3 mg/kg IV once daily 4 days), “no abnormalities”; in the data set on ICR mice [4] (1 mg/kg IV once daily 4 days, no abnormalities on days 2, 3, 4), “decrease in activity after initial administration”; in the data set on ICR mice [5] (0.03 mg/kg IV once daily 4 days), “no abnormalities”. Further, the Clinical observations result was “decreased activity and discolored urine (red)” in the data set on ICR mice [5] (0.1 mg/kg IV once daily 4 days, after administration, no abnormalities on days 2, 3, 4); “decreased activity and discolored urine (red)” in the data set on ICR mice [5] (0.3 mg/kg IV once daily 4 days, after administration, no abnormalities on days 2, 3, 4). Besides, the Body weight result with ICR mice [4] (0.1, 0.3, 1 mg/kg IV once daily 4 days, FIG. 9) is on record as “increased”; in the data set with ICR mice [5] (each group surviving administration, IV once daily 4 days, FIG. 10) it was “relatively stable”. In addition, the Mortality result in the data set on ICR mice [5] (1.0 mg/kg IV) is “died shortly after administration”. Also, in data set [6], the “Solubility (conclusion)” value is “inadequate solubility”. For the same compound, the “Solid form by XRPD” value in data set [6] (API used in the formulation along with API of a different lot) is “amorphous nature”.
